# Source: patent US11325937B2, “Glycoside compound and preparation method therefor, composition, application, and intermediate” (SHANGHAI HUTCHISON PHARMACEUTICALS LIMITED, priority 2018, dated 2022)
# Tested on: VEGF-A mRNA expression in macrophages (RAW264.7)
# Assay: In vitro macrophage experiment: activity of compounds to promote VEGF-A mRNA expression (RT-qPCR)
# Format: cell-based
# Conditions: Mus musculus, RAW264.7 macrophages, 3 h, relative expression, no drug = 1, read-out: Expression level of VEGF-A mRNA; for fold induction at 500 µM: 0.5 mM; for fold induction at 1000 µM: 1 mM; for fold induction at 2000 µM: 2 mM; for fold induction at 3000 µM: 3 mM; for fold induction at 4000 µM: 4 mM
# Outline: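 RAW264.7 macrophages were exposed to test compounds at various concentrations for 3 h at 37° C. VEGF-A mRNA was measured by SYBR Green RT-qPCR, normalized to β-Actin, and expressed as 2^−ΔΔCt relative to untreated cells (=1). Activity is the maximal fold induction, with ≥4 as hit criterion.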
Structure (SMILES),fold induction at 500 µM,fold induction at 1000 µM,fold induction at 2000 µM,fold induction at 3000 µM,fold induction at 4000 µM
COc1ccc(CCCCO[C@@H]2O[C@H](CO)[C@@H](O)[C@H](O)[C@H]2O)cc1 [TG-028],0.79,0.39,6.77,13.4,4.23
OC[C@H]1O[C@@H](OCCc2ccccc2)[C@H](O)[C@@H](O)[C@@H]1O [TG-055],6.36,2.11,4.44,3.81,6.11
